Source: publication PMC12775124, “CUL4A-DDB1-DCAF10 is an N-recognin for N-terminally acetylated Src kinases” (Nature Communications, 2026)

System: GST-DCAF10
Test: Streptavidin pull-down of GST-DCAF10 with biotinylated Nt-peptides
Type: binding, human
Conditions: for Binding to GST-DCAF10 (in words) / Nt-free reduction compared to Nt-Ac: 0.5 µM GST-DCAF10, 5 µM peptide, 1 h RT, WB; for Nt-free reduction compared to Nt-Ac: mean ± s.d., n = 3 independent binding assays
Procedure: To confirm direct interactions between peptides and DCAF10, we performed pull-down assays using bead-bound Nt-peptide variants incubated with purified full-length GST-DCAF10 or GST as a negative control (Fig. 2m–p and Supplementary Fig. 4a).
230 of 1:100), and desalted/concentrated on C18 reversed phase stage tips as previously
MS measurements settings are stated in MS measurements and raw file
BL21(DE3) cells (Thermo Fisher Scientific,
240 agar) plate containing 100 μg/mL ampicillin and 34 μg/mL chloramphenicol, then
Terrific broth (TB) medium (24 g/L yeast extract,
243 20 g/L tryptone, glycerol 4 mL/L, 100 mL/L phosphate buffer containing 0.17 M KH2PO4
244 and 0.72 M K2HPO4) was used to prepare a 1:100 dilution of the starter culture, and OD600
At OD600 = 1, protein induction was initiated by adding 1 mM
247 day, pellets were homogenized and lysed in glycerol lysis buffer (20 mM Tris-HCl pH
Lysis was performed on ice for 30 min, followed by
250 sonication (7 × 20 sec pulses with 20 sec breaks on ice) using a Bandelin sonoplus
Lysates were centrifuged at 4°C for 1 h
253 medium culture was lysed in 20 mL of supernatant (collected in 20 × 1 mL tubes). GST
255 agarose bead; Thermo Fisher Scientific, Waltham, MA, USA). For each 1 mL of
100 μL of GST magnetic beads
257 were washed twice with 500 μL of wash buffer (125 mM Tris-HCl pH 7.4, 150 mM NaCl,
The lysis supernatant was diluted 1:1 with
259 wash buffer, and incubated with the beads on an end-over-end rotator for 1 h at 25°C.
260 After incubation, the supernatant was removed, and the beads were washed twice with
Protein elution was then performed by incubating
263 pH 7.4, 250 mM NaCl, 0.3% Triton X-100) for 30 min at 25°C on an end-over-end rotator.
265 under the same conditions. Elution fractions were pooled and concentrated by
266 centrifugation (4°C, 25 min, 4500 rpm) using a 30 kDa cut-off concentrator (Merck
267 Millipore, #UFC803008, Darmstadt, Germany). Purified proteins were analyzed by
268 colloidal Coomassie stain, WB and MS.
270 Streptavidin pull-downs with GST-DCAF10 and biotinylated peptides
271 Streptavidin magnetic beads (DynabeadsTM MyOneTM Streptavidin T1; Thermo Fisher
272 Scientific, Waltham, MA, USA) were washed twice with 500 μL of wash buffer (125 mM
273 Tris-HCl pH 7.4, 150 mM NaCl, 0.1% Triton X-100). An excess of peptides was added
274 (to ensure full occupancy of the beads) and incubated for 30 min at RT. After peptide
275 binding, beads were again washed three times with 500 μL of wash buffer. The pull-down
276 was then performed in a 100 μL reaction volume with final concentrations of 0.5 µM
277 GST-DCAF10 and 5 µM peptide. GST-DCAF10 or GST alone (as a control) was added
278 to the peptide-streptavidin beads and incubated on a rotator for 1 h at RT. After incubation,
279 the beads were washed three times with 500 μL of wash buffer and resuspended in 4x
280 Laemmli buffer. 1/5 of the input (GST-DCAF10 and GST) and 9/10 of the sample were
281 loaded on a 10% SDS gel and blotted with anti-GST and anti-DCAF10 antibodies, while
282 1/10 was loaded on a 15% SDS gel and blotted with anti-streptavidin antibody to assess
283 equal peptide loading.
285 Streptavidin Sepharose High Performance, GE Healthcare, Chicago, IL, USA) were used.
286 After washing with a high salt wash buffer without detergents (125 mM Tris-HCl pH 7.4,
287 400 mM NaCl), an excess of peptides was added and incubated for 30 min at RT. For each
288 reaction, 10 µL of slurry beads were used. After peptide-binding, beads were again
289 washed once with a high salt wash buffer without detergents and twice with binding buffer
290 without detergents (125 mM Tris-HCl pH 7.4, 150 mM NaCl). The pull-downs were
291 performed in a 100 μL reaction volume in binding buffer without detergents with a final
292 concentration of 0.5 µM GST-DCAF10 and incubated rotating for 1 h at RT. After
293 incubation, the beads were washed five times with 500 μL of high salt wash buffer without […]

## GCIKSKGKDSKK [Nt-free Lyn, Nt-peptide of Lyn (aa 1–10 + KKK-biotin), Nt-free]
Listed as Lyn Nt-free
  Binding to GST-DCAF10 (in words): bound only weakly
  Nt-free reduction compared to Nt-Ac: 88.5 ± 14.7%

## GCIKSKGKDSKK [Ac-Lyn, Nt-peptide of Lyn (aa 1–10 + KKK-biotin), Nt-acetylated]
Listed as Nt-acetylated Lyn
  Binding to GST-DCAF10 (in words): bound robustly to GST-DCAF10

## GSNKSKPKDAKK [Ac-Src, Nt-peptide of Src, Nt-acetylated]
Compared with Lyn and Fyn
  Lower binding in pull-downs: ~ 30%

## GCVQCKDKEAKK [Nt-free Fyn, Nt-peptide of Fyn, Nt-free]
  Binding to GST-DCAF10 (in words): bound only weakly
  Nt-free reduction compared to Nt-Ac: 82.5 ± 10.8%
